In US10166237B2, “Compounds and methods for inducing chondrogenesis” (The Scripps Research Institute, priority 2011, dated 2019):

Test system: human mesenchymal stem cells (hMSCs)
Test: chondrogenic nodule formation by hMSCs (high throughput screen)
Assay type: cell-based
Method: The primary screening assay was based upon the development of chondrogenic nodules. Chondrocytes can grow in monolayer in vitro, but to more closely mimic their native environment in the joint, the cells are routinely cultured in non-adherent conditions such as in pellet cultures or alginate bead suspensions.
In the actual screen of a library of 22,000 structurally diverse heterocycles, 10^4 primary hMSCs were plated in 384 well plates in serum free DMEM. The cells were treated with 5 μM of each compound and incubated for 4 days. […] To facilitate high throughput imaged-based detection, the chondrogenic nodules were stained with […]. The Nile Red stained nodules were quantified on an Acumen eX3 (high content imaging device) by excitation with a 488 laser for rapid detection of the nodules.
Primary hMSCs grown in a 96 well Greiner plates (50,000/well) were incubated for 4 days in the presence of the 5 uM of each DMSO or 100 nM of PRO1. On day 4, the cells were fixed with 4% formalin for 10 minutes, washed and stained with 1 μg/ml of Rhodamine B for 2 hours at room temperature.

Structure (SMILES)	Activity (chondrogenic nodules formed in % of cells)
O=C(O)c1cccc(CNC(=O)c2ccccc2C(=O)O)c1 [MS02]	** (chondrogenic nodules formed in at least 25% but less than 50% of cells)
N#Cc1ccccc1CNC(=O)c1ccccc1C(=O)O [MS04]	** (chondrogenic nodules formed in at least 25% but less than 50% of cells)
N#Cc1ccc(CNC(=O)c2ccccc2C(=O)O)cc1 [MS06]	** (chondrogenic nodules formed in at least 25% but less than 50% of cells)
N#Cc1ccc(C(=O)NCc2ccccc2C(=O)O)cc1 [MS11]	** (chondrogenic nodules formed in at least 25% but less than 50% of cells)
O=C(Cc1ccc(C(=O)O)cc1)Nc1ccccc1C(=O)O [MS14]	** (chondrogenic nodules formed in at least 25% but less than 50% of cells)
N#Cc1ccc(/C=C/C(=O)c2ccccc2C(=O)O)cc1 [MS15, 2-[(2E)-3-(4-cyanophenyl)prop-2-enoyl]benzoic acid]	*** (chondrogenic nodules formed in at least 50% but less than 75% of cells)
O=C(O)c1ccc(/C=C/C(=O)c2ccccc2C(=O)O)cc1 [MS16]	** (chondrogenic nodules formed in at least 25% but less than 50% of cells)
N#Cc1ccc(C(=O)CC2OC(=O)c3ccccc32)cc1 (stereo not drawn) [MS17-1]	*** (chondrogenic nodules formed in at least 50% but less than 75% of cells)
O=C(O)c1ccc(C(=O)CC2OC(=O)c3ccccc32)cc1 (stereo not drawn) [MS18-1]	** (chondrogenic nodules formed in at least 25% but less than 50% of cells)
N#Cc1ccc(-c2c[nH]c3c(C(=O)O)cccc23)cc1 [MS21]	*** (chondrogenic nodules formed in at least 50% but less than 75% of cells)
N#Cc1ccc(N2Cc3ccccc3C2=O)cc1 [MS26]	** (chondrogenic nodules formed in at least 25% but less than 50% of cells)
N#Cc1ccc(N2C(=O)c3ccccc3C2=O)cc1 [MS28]	** (chondrogenic nodules formed in at least 25% but less than 50% of cells)
O=C(O)c1ccc(N2C(=O)c3ccccc3C2=O)cc1 [MS29]	*** (chondrogenic nodules formed in at least 50% but less than 75% of cells)
O=C(O)c1ccc2c(c1)C(=O)N(Cc1ccccc1C(=O)O)C2=O [MS39]	*** (chondrogenic nodules formed in at least 50% but less than 75% of cells)
O=C(NO)c1ccc(NC(=O)c2ccccc2C(=O)O)cc1 [PA02]	** (chondrogenic nodules formed in at least 25% but less than 50% of cells)
O=C(O)c1ccccc1C(=O)Nc1ccc(-c2nn[nH]n2)cc1 [PA06]	*** (chondrogenic nodules formed in at least 50% but less than 75% of cells)
O=C(O)c1ccccc1C(=O)Nc1ccc(S(=O)(=O)O)cc1 [PA07]	*** (chondrogenic nodules formed in at least 50% but less than 75% of cells)
O=C(O)c1ccccc1C(=O)Nc1ccc(P(=O)(O)O)cc1 [PA08]	** (chondrogenic nodules formed in at least 25% but less than 50% of cells)
O=C(O)c1ccccc1C(=O)Nc1ccc(COc2ccccc2)cc1 [PM02]	** (chondrogenic nodules formed in at least 25% but less than 50% of cells)
O=C(O)c1ccccc1C(=O)Nc1ccc(-c2ccccn2)cc1 [PM05]	** (chondrogenic nodules formed in at least 25% but less than 50% of cells)
NC(=O)NCc1ccc(NC(=O)c2ccccc2C(=O)O)cc1 [PM10]	** (chondrogenic nodules formed in at least 25% but less than 50% of cells)
